Data from patent US20220401514A1, “ANTIMICROBIAL, BACTERIOPHAGE-DERIVED POLYPEPTIDES AND THEIR USE AGAINST GRAM-NEGATIVE AND ACID-FAST BACTERIA” (CONTRAFECT CORPORATION, priority 2019, published 2022).

System: Acinetobacter baumannii strain 30
Experiment: Checkerboard assay (FICI) with antibiotics, A. baumannii
Assay type: cell-based
Settings: checkerboard

NC[C@H]1O[C@H](O[C@H]2[C@H](O)[C@@H](O[C@H]3O[C@H](CO)[C@@H](O)[C@H](N)[C@H]3O)[C@H](N)C[C@@H]2N)[C@H](N)C[C@@H]1O [tobramycin, reference compound]
Antibiotic FIC (in combination with Chp2): 0.125 | Antibiotic MIC (in combination with Chp2): 0.01562 µg/mL | Antibiotic FIC (in combination with Chp2-M1): 0.25 | Antibiotic MIC (in combination with Chp2-M1): 0.01562 µg/mL | Antibiotic FIC (in combination with Chp4-M1): 0.5 | Antibiotic FIC (in combination with Chp6-M1): 0.25 | Antibiotic MIC (in combination with Chp6-M1): 0.01562 µg/mL | Antibiotic FIC (in combination with Chp10-M1): 0.25 | Antibiotic MIC (in combination with Chp10-M1): 0.01562 µg/mL | Antibiotic FIC (in combination with Unp2-M1): 0.25 | Antibiotic MIC (in combination with Unp2-M1): 0.01562 µg/mL
